This passage reports TGI and GI50 results from PubChem BioAssay (NCI).

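Exposure lasted 48 hours, with cells grown in 96-well plates and compounds tested at five concentrations. GI50 marks 50% less growth. TGI denotes the concentration required for complete inhibition of growth.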

Common to all, as to assay: NCI tumour cell line growth inhibition, 48 h
The test system of test [1] is HT29 colon.
For test [2], the system named is MOLT-4 leukemia.
In test [3] the test system is NCI-H460 lung.
The test system of test [4] is OVCAR-5 ovarian.
Test [5] concerns SF-295 CNS.
The subject of test [6] is SK-MEL-2 melanoma.
The test system of test [7] is SK-MEL-28 melanoma.
Test [8] has as its system SK-MEL-5 melanoma.
In test [9] the test system is SN12C renal.
Test [10] deals with HS 578T breast.

As to `Cc1ccc(-c2nnc(-c3nn(-c4ccccc4)c4nc5ccccc5nc34)o2)cc1`, the TGI in test [1] was more than 100 µM; in [2], more than 100 µM; in test [3], 41.6 µM; in [4], more than 100 µM; in test [5] it was 36.8 µM; in test [6] it was 39 µM. Also, the TGI in [7] was more than 100 µM; in test [8], 25.8 µM; in test [9], more than 100 µM.
Take `Cc1ccc2c(C3Cc4ccccc4N3C(=O)/C=C\C(=O)O)c(C)[nH]c2c1` (centres undefined): the TGI in test [1] was more than 100 µM; in [2], 94.6 µM; in test [3] it was more than 100 µM; in test [4], more than 100 µM; in test [5], more than 100 µM; in test [6], 36 µM. Further, the TGI in test [7], in test [8] and in test [9] was more than 100 µM each time.
`COc1cc2c(cc1OCCCn1c(-c3ccccn3)nc3ccccc31)N=C[C@@H]1CCCN1C2=O`: the GI50 in [1] is 3.61 µM; in test [2], 4.38 µM; in test [3], 1.88 µM; in test [4], 3.41 µM; in [5] it was 4.05 µM; in test [6], 1.52 µM. Moreover, the GI50 in test [7] is 5.01 µM; in test [8], 1.57 µM; in test [9], 3.05 µM. Also, the TGI is more than 79.6 µM in test [1]; more than 28.6 µM in test [2]; 4.34 µM in [3]; 9.34 µM in test [4]; 49.7 µM in test [5]; 3.94 µM in test [6]. Also, the TGI stood at 11.6 µM in test [7], 2.96 µM in test [8] and 15.1 µM in test [9].
On to `COc1ccc(C=O)c([N+](=O)[O-])c1`, for which the TGI in test [1] was 63.8 µM; in [2] it was more than 100 µM; in test [3], more than 100 µM; in test [5] it was 64.9 µM; in [6] it was more than 100 µM; in [7] it was more than 100 µM. Moreover, the TGI in test [8] and in test [9] was more than 100 µM each time.
Take `CCOC(=O)C1C(=S)NC(=O)C1C#N` (centres undefined): the TGI in [1], in test [2], in test [3], in [4], in test [5] and in test [6] was more than 100 µM in each case. For the same compound, the TGI in test [7], in test [8] and in test [9] was more than 100 µM in each case.
Regarding `COC(=O)C1(C)CCc2c(OC)ccc(OC)c2C1=O` (centres undefined), the TGI in test [2], in [4], in test [5], in test [6], in test [7] and in test [8] was more than 100 µM each time. In addition, the TGI in test [9] was more than 100 µM.
As for `COC(=O)C1CC2CC(=NNC(N)=O)CC2C1` (centres undefined), the TGI in test [1], in [2], in [3], in test [4], in [5] and in test [6] was more than 100 µM in each case. Also, the TGI in test [7], in test [8] and in [9] was more than 100 µM in each case.
Turning to `CO[C@H]1CC(O[C@@H]2/C(C)=C/C[C@@H]3C[C@@H](C[C@]4(C=C[C@H](C)[C@@H](C5CCCCC5)O4)O3)OC(=O)[C@@H]3C=C(C)[C@@H](O)[C@H]4OC/C(=C\C=C\[C@@H]2C)[C@]43O)O[C@@H](C)C1O[C@H]1C[C@H](OC)[C@@H](O)[C@H](C)O1` (some centres undefined), the GI50 was 2.45 µM in test [10]; 1.87 µM in [1]; 2.05 µM in test [2]; 1.33 µM in test [5]; 1.58 µM in [7]; 1.41 µM in test [8]. Also, the TGI in test [10] is more than 100 µM; in test [1] it was 3.85 µM; in test [2] it was 4.83 µM; in test [5] it was 2.83 µM; in test [7], 3.03 µM; in test [8] it was 2.77 µM.
For `CC#CCC1CCC(OCC)=CC1=O` (centres undefined), the TGI in [1], in test [2], in test [3], in test [4], in test [5] and in test [6] was more than 100 µM throughout. For the same compound, the TGI in test [7], in [8] and in test [9] was more than 100 µM each time.
As to `O=C1CC(c2c[nH]c3ccccc23)C(=O)N1` (centres undefined), the TGI in test [1], in test [2], in [3], in test [4], in test [5] and in test [6] was more than 100 µM in each case. Further, the TGI in [7] and in test [8] was more than 100 µM in each case.
As to `O=C1c2c(c3c4ccccc4[nH]c3c3ccc4ccccc4c23)C(=O)N1CCN1CCNCC1`, the GI50 in test [1] is 1.72 µM; in [2] it was 0.487 µM; in test [3], 1.1 µM; in [4], 1.72 µM; in [5], 1.85 µM; in [6] it was 2.03 µM. Also, the GI50 in test [7] is 1.68 µM; in test [8] it was 1.78 µM; in test [9] it was 1.68 µM. Moreover, the TGI was found to be 3.27 µM in test [1]; 1.88 µM in test [2]; 2.6 µM in [3]; 3.12 µM in test [4]; 3.42 µM in test [5]; 4.7 µM in [6]. The TGI worked out at 3.1 µM in test [7], 3.31 µM in test [8] and 3.13 µM in [9].
Consider `N#CC(=C1C=CC(=NO)C=C1)c1ccc(Cl)cc1`, for which the TGI is 22.9 µM in [1]; 39.5 µM in test [2]; 56.4 µM in test [3]; 28.8 µM in test [4]; 48 µM in test [5]; 20.2 µM in test [6]. The TGI in test [7] stood at 37.9 µM; in test [8], 21.3 µM; in [9], 58.7 µM.
For the compound `Cc1c(/C=N/N=C/c2[nH]c(C(=O)OC(C)(C)C)c(C)c2C)[nH]c(C(=O)OC(C)(C)C)c1C`, the TGI in test [1], in test [2], in [3], in [4], in test [5] and in test [6] was more than 100 µM in each case. Moreover, the TGI in test [8] and in test [9] was more than 100 µM throughout.
`O=C(NC1CCCCC1)NS(=O)(=O)c1ccc2c(c1)CCC2`: the TGI in test [2], in test [4], in [5], in test [6], in test [7] and in test [9] was more than 100 µM throughout.
